Drawing on patent US20260317324A1, “BIFUNCTIONAL COMPOUNDS FOR DEGRADING BRAF VIA UBIQUITIN PROTEOSOME PATHWAY” (Nurix Therapeutics, Inc., priority 2023, published 2026), this text covers DC50 and Dmax for nine compounds.

What all share (type): cell-based
One assay concerns the target T1, BRAF D594G (Homo sapiens, UniProt P15056, D594G).
T1 construct: Horizon Discovery (HCT-116 BRAF−/− cells); host or cells: HCT-116 BRAF−/− cells, clone 63, lentiviral transduction
Briefly: BRAF HiBiT degradation assay, C-terminal HiBiT-tagged BRAF D594G overexpressed in HCT-116 BRAF−/− cells (clone 63), Nano-Glo HiBiT Lytic assay. The gist of the method:
(§1)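 First, the stable HiBiT-tagged cells were plated and incubated for 24 h. Next, compound was added in duplicate as an 11-point series with a 1 μM top concentration. Lytic detection followed, with DMSO-treated parental cells used for background. Finally, DC50 and Obs. Dmax relative to DMSO were derived from the % protein remaining curves.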
Background: The HiBiT peptide binds its large partner to form an active luciferase.

The next assay addresses T2, BRAF G469A (Homo sapiens, UniProt P15056, G469A).
T2 construct: Horizon Discovery (HCT-116 BRAF−/− cells); host or cells: HCT-116 BRAF−/− cells, clone 34, lentiviral transduction
The experiment in a line: BRAF HiBiT degradation assay, C-terminal HiBiT-tagged BRAF G469A overexpressed in HCT-116 BRAF−/− cells (clone 34), Nano-Glo HiBiT Lytic assay. The method, boiled down: as §1

The next assay addresses T3, BRAF V600E (Homo sapiens, UniProt P15056, V600E).
T3 construct: endogenous C-terminal HiBiT fusion tag on BRAF V600E allele; endogenous in cells; host or cells: A375 clone 1F10 (CRISPR-Cas9 knock-in of the HiBiT tag; parental A375 from ATCC)
The experiment in a line: BRAF HiBiT degradation assay, C-terminal HiBiT-tagged BRAF V600E A375 cells (clone 1F10), Nano-Glo HiBiT Lytic assay. The following applies: for Dmax: A-375. The method, boiled down: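 Degradation is measured as loss of HiBiT signal from BRAF V600E tagged at its native locus in A375 cells. Doses span 1 μM to 0.01 nM in half-log steps, in duplicate. Percent remaining is calculated against DMSO controls after subtracting untagged A375 background, and curve fitting yields DC50 and observed Dmax.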

The next assay concerns the target T4, BRAF G466V (Homo sapiens, UniProt P15056, G466V).
T4 construct: Horizon Discovery (HCT-116 BRAF−/− cells); host or cells: HCT-116 BRAF−/− cells, clone 8, lentiviral transduction
Briefly: BRAF HiBiT degradation assay, C-terminal HiBiT-tagged BRAF G466V overexpressed in HCT-116 BRAF−/− cells (clone 8), Nano-Glo HiBiT Lytic assay. The method, boiled down: as §1

The mark [1] stands for this setting: BRAF D594G, DC50 at 50%: fitted conc. at Y=50.
Where [2] appears, read: HCT-116, BRAF D594G, percentage protein degraded at maximal compound effect relative to DMSO.
Where [3] appears, read: Class 2, BRAF G469A, DC50 at 50%: fitted conc. at Y=50.
The mark [4] stands for this setting: HCT-116, Class 2, BRAF G469A, percentage protein degraded at maximal compound effect relative to DMSO.
[5] abbreviates: A375 (BRAF V600E), DC50 at 50%: fitted conc. at Y=50.
The mark [6] stands for this setting: A375 (BRAF V600E), percentage protein degraded at maximal compound effect relative to DMSO.
Where [7] appears, read: BRAF G466V, DC50 at 50%: fitted conc. at Y=50.
Where [8] appears, read: HCT-116, BRAF G466V, percentage protein degraded at maximal compound effect relative to DMSO.
Setting [9] is: BRAF D594G (Class 3), HCT-116 BRAF−/− cells, DC50 at 50% degradation.
Where [10] appears, read: BRAF D594G (Class 3), HCT-116 BRAF−/− cells, observed Dmax relative to DMSO control.
Where [11] appears, read: BRAF G469A (Class 2), HCT-116 BRAF−/− cells, DC50 at 50% degradation.
Setting [12] is: BRAF G469A (Class 2), HCT-116 BRAF−/− cells, observed Dmax relative to DMSO control.
Setting [13] is: A375 (BRAF V600E, Class 1), DC50 at 50% degradation.
[14] abbreviates: A375 (BRAF V600E, Class 1), observed Dmax, % protein degraded relative to DMSO control.
Setting [15] is: BRAF G466V (Class 3), HCT-116 BRAF−/− cells, DC50 at 50% degradation.
Where [16] appears, read: BRAF G466V (Class 3), HCT-116 BRAF−/− cells, observed Dmax relative to DMSO control.

T2 sequence (P15056 whole entry G469A): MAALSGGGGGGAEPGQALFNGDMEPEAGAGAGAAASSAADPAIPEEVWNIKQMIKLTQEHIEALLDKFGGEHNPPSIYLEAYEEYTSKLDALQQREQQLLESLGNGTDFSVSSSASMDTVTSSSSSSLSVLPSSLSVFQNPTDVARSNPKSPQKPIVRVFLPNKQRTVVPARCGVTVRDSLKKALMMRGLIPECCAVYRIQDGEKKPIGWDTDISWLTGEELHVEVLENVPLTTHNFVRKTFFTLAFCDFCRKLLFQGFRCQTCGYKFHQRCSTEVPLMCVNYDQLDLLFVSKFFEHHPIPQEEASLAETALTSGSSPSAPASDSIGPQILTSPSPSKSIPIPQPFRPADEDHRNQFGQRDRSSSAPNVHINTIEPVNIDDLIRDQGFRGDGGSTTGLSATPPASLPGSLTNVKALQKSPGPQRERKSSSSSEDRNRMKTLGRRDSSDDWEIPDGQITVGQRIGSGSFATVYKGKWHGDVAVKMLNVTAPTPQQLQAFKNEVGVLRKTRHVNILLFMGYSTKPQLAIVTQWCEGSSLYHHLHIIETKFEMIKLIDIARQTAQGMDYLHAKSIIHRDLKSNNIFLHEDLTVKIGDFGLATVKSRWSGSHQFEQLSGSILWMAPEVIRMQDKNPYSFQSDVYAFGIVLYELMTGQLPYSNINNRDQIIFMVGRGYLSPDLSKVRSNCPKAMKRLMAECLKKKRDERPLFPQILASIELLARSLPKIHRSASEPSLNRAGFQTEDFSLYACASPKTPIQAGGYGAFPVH
T1 sequence (P15056 whole entry D594G): as the sequence (P15056 whole entry G469A) above, with A469G, D594G counted along it
T4 sequence (P15056 whole entry G466V): as the sequence (P15056 whole entry G469A) above, with G466V, A469G counted along it
T3 sequence (P15056 whole entry V600E, the tested form may be a part): as the sequence (P15056 whole entry G469A) above, with A469G, V600E counted along it

As a reminder, the DC50 is the midpoint of the concentration-degradation curve. In general, Dmax refers to the greatest extent of degradation seen. Read a high Dmax as a fuller loss of target. Turning to `CCCS(=O)(=O)Nc1cccc(-c2nc(C3CCN(C(=O)CN4CCC5(CC4)CN(c4ccc6c(c4)C(=O)N(C4CCC(=O)NC4=O)C6=O)C5)CC3)sc2-c2ccnc(NC)n2)c1F` (racemic) [Compound 219, Rac-N-[3-(2-{1-[2-(2-{2-[(3R)-2,6-dioxopiperidin-3-yl]-1,3-dioxo-2,3-dihydro-1H-isoindol-5-yl}-2,7-diazaspiro[3.5]nonan-7-yl)acetyl]piperidin-4-yl}-5-[2-(methylamino)pyrimidin-4-yl]-1,3-thiazol-4-yl)-2-fluorophenyl]propane-1-sulfonamide], the DC50 was > 500 nM at BRAF D594G (setting [1]), > 500 nM at BRAF G469A (setting [3]), < 10 nM at BRAF V600E (setting [5]) and < 10 nM on BRAF G466V (setting [7]). For the same compound, the Dmax was 30 to 70% at BRAF D594G (setting [2]), 30 to 70% at BRAF G469A (setting [4]), > 70% on BRAF V600E (setting [6]) and 30 to 70% at BRAF G466V (setting [8]).

With `CCCS(=O)(=O)Nc1cccc(-c2nc(C3CCC4(CC3)CCN(C(=O)CCCCCc3ccc5c(c3)C(=O)N(C3CCC(=O)NC3=O)C5)CC4)sc2-c2ccnc(N)n2)c1F` (racemic) [Compound 235, Rac-N-{3-[5-(2-aminopyrimidin-4-yl)-2-[3-(6-{2-[(3R)-2,6-dioxopiperidin-3-yl]-3-oxo-2,3-dihydro-1H-isoindol-5-yl}hexanoyl)-3-azaspiro[5.5]undecan-9-yl]-1,3-thiazol-4-yl]-2-fluorophenyl}propane-1-sulfonamide], the half-maximal degradation concentration (DC50) at BRAF D594G (setting [1]) was > 500 nM; on BRAF G469A (setting [3]), > 500 nM; on BRAF V600E (setting [5]), < 10 nM; on BRAF G466V (setting [7]), > 500 nM. In addition, the Dmax on BRAF D594G (setting [2]) was 30 to 70%; on BRAF G469A (setting [4]) it was 30 to 70%; on BRAF V600E (setting [6]) it was > 70%; at BRAF G466V (setting [8]), 30 to 70%.

As for `O=C1CC[C@H](c2ccc(N3CCC(CN4CCN(c5ccc(-n6cc(-c7cc(Cl)cc(NS(=O)(=O)N8CC[C@@H](F)C8)c7F)c(-c7ccncc7)n6)c(F)c5)CC4)CC3)cc2)C(=O)N1` [Compound 336, (3R)—N-{5-chloro-3-[1-(4-{4-[(1-{4-[(3R)-2,6-dioxopiperidin-3-yl]phenyl}piperidin-4-yl)methyl]piperazin-1-yl}-2-fluorophenyl)-3-(pyridin-4-yl)-1H-pyrazol-4-yl]-2-fluorophenyl}-3-fluoropyrrolidine-1-sulfonamide], the DC50 at BRAF D594G (setting [9]) is < 10 nM; at BRAF G469A (setting [11]), 10 to 50 nM; on BRAF V600E (setting [13]), < 10 nM; on BRAF G466V (setting [15]), < 10 nM. Also, the Dmax at BRAF D594G (setting [10]), on BRAF G469A (setting [12]), at BRAF V600E (setting [14]) and at BRAF G466V (setting [16]) was > 70% in each case.

As to `CCC(C)S(=O)(=O)Nc1cc(Cl)cc(-c2cn(-c3ccc(N4CCN(CC5CCN(c6ccc([C@H]7CCC(=O)NC7=O)cn6)CC5)CC4)cc3)nc2-c2ccncc2)c1F` (mixture of isomers) [Compound 327, (RS)—N-(5-chloro-3-(1-(4-(4-((1-(5-((R)-2,6-dioxopiperidin-3-yl)pyridin-2-yl)piperidin-4-yl)methyl)piperazin-1-yl)phenyl)-3-(pyridin-4-yl)-1H-pyrazol-4-yl)-2-fluorophenyl)butane-2-sulfonamide], the half-maximal degradation concentration (DC50) at BRAF D594G (setting [9]) was < 10 nM; on BRAF G469A (setting [11]), 10 to 50 nM; at BRAF V600E (setting [13]), < 10 nM; on BRAF G466V (setting [15]), < 10 nM. In addition, the Dmax at BRAF D594G (setting [10]), on BRAF G469A (setting [12]), at BRAF V600E (setting [14]) and at BRAF G466V (setting [16]) was > 70% each time.

In the case of `CCCS(=O)(=O)Nc1cccc(-c2nc(C3CCN(C(=O)C4CCN(C(=O)C5(C)CCN(c6ccc(C7CCC(=O)NC7=O)cn6)CC5)CC4)CC3)sc2-c2ccnc(N)n2)c1F` (racemic) [Compound 193, Rac-N-{3-[5-(2-aminopyrimidin-4-yl)-2-{1-[1-(1-{5-[(3R)-2,6-dioxopiperidin-3-yl]pyridin-2-yl}-4-methylpiperidine-4-carbonyl)piperidine-4-carbonyl]piperidin-4-yl}-1,3-thiazol-4-yl]-2-fluorophenyl}propane-1-sulfonamide], the DC50 on BRAF D594G (setting [1]) was < 10 nM; on BRAF G469A (setting [3]) it was > 500 nM; on BRAF V600E (setting [5]), < 10 nM; at BRAF G466V (setting [7]), 10 to 50 nM. The Dmax on BRAF D594G (setting [2]) is 30 to 70%; at BRAF G469A (setting [4]), 30 to 70%; at BRAF V600E (setting [6]), > 70%; on BRAF G466V (setting [8]) it was 30 to 70%.

Turning to `O=C1CC[C@H](c2ccc(N3CCC(CN4CCN(c5ccc(-n6cc(-c7cc(Cl)cc(NS(=O)(=O)C8CCCC8)c7F)c(-c7ccncc7)n6)cc5)CC4)CC3)nc2)C(=O)N1` [Compound 372, N-{5-chloro-3-[1-(4-{4-[(1-{5-[(3R)-2,6-dioxopiperidin-3-yl]pyridin-2-yl}piperidin-4-yl)methyl]piperazin-1-yl}phenyl)-3-(pyridin-4-yl)-1H-pyrazol-4-yl]-2-fluorophenyl}cyclopentanesulfonamide], the half-maximal degradation concentration (DC50) is < 10 nM at BRAF D594G (setting [9]), 10 to 50 nM on BRAF G469A (setting [11]), < 10 nM at BRAF V600E (setting [13]) and 10 to 50 nM on BRAF G466V (setting [15]). Further, the Dmax on BRAF D594G (setting [10]), at BRAF G469A (setting [12]), on BRAF V600E (setting [14]) and at BRAF G466V (setting [16]) was > 70% in each case.

For the compound `O=C1CC[C@H](c2ccc(N3CCC(CN4CCN(c5ccc(-n6cc(-c7cc(Cl)cc(NS(=O)(=O)N8CC[C@@H](F)C8)c7F)c(-c7ccncc7)n6)c(F)c5)CC4)CC3)nc2)C(=O)N1` [Compound 334, (3R)—N-{5-chloro-3-[1-(4-{4-[(1-{5-[(3R)-2,6-dioxopiperidin-3-yl]pyridin-2-yl}piperidin-4-yl)methyl]piperazin-1-yl}-2-fluorophenyl)-3-(pyridin-4-yl)-1H-pyrazol-4-yl]-2-fluorophenyl}-3-fluoropyrrolidine-1-sulfonamide], the DC50 at BRAF D594G (setting [9]) was < 10 nM; at BRAF G469A (setting [11]), 10 to 50 nM; at BRAF V600E (setting [13]), < 10 nM; on BRAF G466V (setting [15]) it was < 10 nM. Besides, the Dmax at BRAF D594G (setting [10]), on BRAF G469A (setting [12]), at BRAF V600E (setting [14]) and on BRAF G466V (setting [16]) was > 70% in each case.

Take `CCCS(=O)(=O)Nc1cccc(-c2nc(C3CCC4(CC3)CCN(CC[C@H]3CCN(c5ccc(C6CCC(=O)NC6=O)cn5)C3)CC4)sc2-c2ccnc(N)n2)c1F` (mixture of isomers) [Compound 259, N-{3-[5-(2-aminopyrimidin-4-yl)-2-(3-{2-[(3S)-1-{5-[(3RS)-2,6-dioxopiperidin-3-yl]pyridin-2-yl}pyrrolidin-3-yl]ethyl}-3-azaspiro[5.5]undecan-9-yl)-1,3-thiazol-4-yl]-2-fluorophenyl}propane-1-sulfonamide]: the half-maximal degradation concentration (DC50) is > 500 nM at BRAF D594G (setting [9]), > 500 nM on BRAF G469A (setting [11]), 10 to 50 nM on BRAF V600E (setting [13]) and > 500 nM on BRAF G466V (setting [15]). The Dmax is < 30% at BRAF D594G (setting [10]), < 30% at BRAF G469A (setting [12]), 30 to 70% on BRAF V600E (setting [14]) and < 30% at BRAF G466V (setting [16]).

Turning to `O=C1CC[C@@H](c2ccc(N3CCC(CN4CCN(c5ccc(-n6cc(-c7cc(Cl)cc(NS(=O)(=O)N8CCCC8)c7F)c(-c7ccncc7)n6)nc5)CC4)CC3)nc2)C(=O)N1` [Compound 383, N-{5-chloro-3-[1-(5-{4-[(1-{5-[(3S)-2,6-dioxopiperidin-3-yl]pyridin-2-yl}piperidin-4-yl)methyl]piperazin-1-yl}pyridin-2-yl)-3-(pyridin-4-yl)-1H-pyrazol-4-yl]-2-fluorophenyl}pyrrolidine-1-sulfonamide], the half-maximal degradation concentration (DC50) on BRAF D594G (setting [9]) was < 10 nM; on BRAF G469A (setting [11]), 10 to 50 nM; on BRAF V600E (setting [13]), < 10 nM; on BRAF G466V (setting [15]) it was < 10 nM. Further, the Dmax at BRAF D594G (setting [10]), on BRAF G469A (setting [12]), at BRAF V600E (setting [14]) and at BRAF G466V (setting [16]) was > 70% each time.
